The record followed here is a melting point compilation (Tetko et al.; mined from patent text by program, amines drawn as free bases though some values may be those of a salt).

In turn, `Cc1cc(C)c2ncc(NC(=O)Nc3cc(C(C)C)c(O)c(C(C)C)c3)c(-c3ccccc3Cl)c2c1` registered a melting point of 194 to 196 °C.
As for `CC(C)(C)OC(=O)N1C[C@H](NS(=O)(=O)c2ccc(Cl)cc2)C[C@H]1C=O`, the figure is 120 to 122 °C.
To `CC(=O)OCC1OC(n2cc(C(Br)=CI)c(=O)[nH]c2=O)C(OC(C)=O)C1OC(C)=O` (configuration not stated) belongs 86 to 88 °C; to `CCSC1C(=O)N=C(NC(=O)Nc2cccc(Cl)c2)N1C` (configuration not stated), 102 to 104 °C; to `COc1nc(OC)nc(Oc2ccccc2C(=O)O)n1`, 152 °C.
Molecule `OCCCCCCOc1ccc(OCc2ccccc2)cc1` displayed a melting point of 94 to 97 °C.
To `COCc1csc(C(=O)C2C(=O)N(C(N)=O)c3ccc(Cl)cc32)c1` (configuration not stated) belongs 193 to 195 °C; to `CNC(=O)NS(=O)(=O)c1cc2c(cc1OC)OCC(NC(=O)c1cc(F)ccc1OC)C2` (configuration not stated), 260 °C; to `O=C(OCC1OC(Oc2ccc([N+](=O)[O-])cc2)C(OC(=O)c2ccccc2)C(OC(=O)c2ccccc2)C1O)c1ccccc1` (configuration not stated), 180 to 181 °C.
As for `CN1CCC(N(CCO)S(=O)(=O)c2ccc(Nc3nccc(Nc4ccc(F)cc4)n3)cc2)CC1`, the melting point was 125 to 135 °C.
Molecule `O=C(NCc1ccccn1)c1ccc(N2CCN(C(=O)c3ccccc3C(F)(F)F)CC2)nn1` came in with a melting point of 179 to 181 °C.
`C=CCN(CC=C)c1nc(NC(=O)c2ccc(Cl)cc2)n2oc(=O)nc2n1` registered a melting point of 192 to 194 °C.
`CCCCCCCCCCCCCCCCCC(=O)NN(C(=O)CCCCCCCCCCCCCCCCC)C(=O)CCCCC(=O)NN` showed a melting point of 244 °C.
To `CN1CCc2nc3cc(Cl)ccc3c(Oc3ccccc3)c2C1` belongs 138 to 139 °C.
Turning to `S=C(Nc1ccc(Cl)c(Cl)c1)NC1CCCCC1`, the melting point was in the range of 159 to 162 °C.
As for `Cc1c(Cc2ccc(Cl)cc2)cccc1[N+](=O)[O-]`, the figure is 84 to 85 °C; as for `N#Cc1cnn2c1N(C(=O)CCl)CC=C2c1cccc(Cl)c1`, 196 to 198 °C.
As for `IC#CCSc1cccnc1`, the figure is 114 to 116 °C; as for `O=[N+]([O-])c1cccnc1NCc1cccs1`, 100 °C.
As for `CC1CCC2(C)C(=CCC3C2CCC2(C)C(C(=O)CN)CCC32)C1` (configuration not stated), the figure is 139 °C.
On to `Cn1c(Br)nc2c([N+](=O)[O-])cc(Br)cc21`, for which the melting point lay in the range of 235 to 236 °C.
To `CCCC1CCCN(C(=O)C2Cc3ccccc3N2c2ccc(=O)n(C)n2)C1` (configuration not stated) belongs 106 to 110 °C.
As for `CCN(C)C1CCCN(C(=O)c2ccc(NC(=O)c3ccccc3C)cc2)c2ccccc21` (configuration not stated), the figure is 192 to 193 °C; as for `Cc1ccc(CS(=O)c2nc3cc4c(cc3[nH]2)OC(F)C(F)(F)O4)nc1` (configuration not stated), 186 to 187 °C.
To `COc1cc(C)c(C)cc1OC` belongs 41 to 42 °C; to `NS(=O)(=O)c1ccc(-c2cc(-c3nc(-c4ccc(C(F)(F)F)nc4)cc(C(F)F)n3)ccn2)s1`, 270 °C.
Take `O=[N+]([O-])c1cc(CO)ccc1OCc1ccccc1`: the melting point is 76 to 77 °C.
To `O=S(=O)(Nc1cccc2cc(-c3ncc(CO)s3)[nH]c12)c1cccs1` belongs 209 to 210 °C; to `CSc1nnc(C(N)(c2ccc(Cl)cc2)c2ccc3nc(C)cc(-c4cccc(Cl)c4)c3c2)n1C` (configuration not stated), 128 °C.
As for `NC(=O)c1sc2nccc(N3CCN(C/C=C/c4ccccc4)CC3)c2c1N`, the figure is 225 to 227 °C; as for `CCCCc1nc(C(=O)O)c(S(=O)(=O)c2ccccc2)n1Cc1ccc(-c2ccccc2C(=O)O)cc1`, 155 °C; as for `CC(C)c1cc(-c2ccc(F)cc2)nc(N(C)S(C)(=O)=O)n1`, 138 to 139 °C.
As for `OC1CSC(Oc2cncc(-c3ncccn3)c2)C(O)C1O` (configuration not stated), the figure is 201 °C; as for `O=C(O)c1cc(-c2ccc(OCc3ccccc3)cc2OCc2ccccc2)no1`, 192 to 193 °C.
`[N-]=[N+]=Nc1ccc(C=Cc2ccncc2)cc1` yielded a melting point of 88.2 to 89.4 °C.
As for `COc1ccc2c(c1F)CSCC2=O`, the figure is 85 to 92 °C; as for `COC(=O)c1cccc2c1NCC2`, 70 to 73 °C; as for `CCOC(=O)N1C(c2ccccc2)OC(=O)C1c1ccccc1` (configuration not stated), 197 to 199 °C.
`COC(=O)c1ccn2c1C(C(=O)OC)CC2` (configuration not stated) yielded a melting point of 70 to 71 °C.
As for `O=P(O)(O)c1cccc(Br)c1`, the melting point is 144 to 149 °C.
For the molecule `O=C1Cc2cccc(S(=O)c3ccc(Cl)cc3)c2N1` (configuration not stated), the melting point was in the range of 191 to 194 °C.
To `NC(=O)N(O)CC#Cc1cccc(Oc2cccnc2)c1` belongs 107 to 110 °C; to `O=C1Nc2c(ccc3ccccc23)SC1=Cc1ccc(Cl)cc1`, 277 to 279 °C; to `CC(C)C=CC1(C(F)(F)F)OCC(=O)Nc2ccc(F)cc21` (configuration not stated), 145 to 156 °C.
`COc1cc2c(cc(C(=O)OCc3ccccc3)n2CCC#N)c(C)c1C` came in with a melting point of 140 °C.
As for `CC(C)(O)CNC(=O)c1ccc(-c2ccc(C(CC3CCOCC3)c3ccc(S(=O)(=O)C4CC4)cc3)[nH]2)nc1` (configuration not stated), the figure is 126 to 128 °C.
`NC(=O)C(=O)NC(C(=O)O)c1ccco1` (configuration not stated): the melting point was 174 °C.
To `O=C(CCl)NCc1cc2c(c(Br)c1O)CCCC2=O` belongs 201 to 203 °C; to `CC(C)C(N)CCCCCCCCC(C)(C)C(=O)O` (configuration not stated), 156 to 159 °C.
In turn, `COc1ccc(C=Cc2ccncc2)cc1` came in with a melting point of 128 to 130 °C.
As for `[O-][N+]1=C(c2ccccc2Cl)c2cc(Cl)ccc2C=CC1`, the figure is 196 to 197 °C; as for `COc1ccc(Cn2c(Cl)nc3c(-c4ccc(Cl)o4)ncnc32)cc1`, 156 to 157 °C.
To `COc1ccc2[nH]c(CC(C)C)c(/C=C/C(=O)c3ccncc3)c2c1` belongs 217 to 218 °C.
Regarding `CC1(C)CC1C(=O)Nc1ccc(C2=NNC(=O)CC2)cc1` (configuration not stated), the melting point lay within 213 to 214 °C.
To `CS(=O)(=O)c1c(C(=O)NN=Cc2cccc3ccccc23)[nH]c2ccccc12` belongs over 250 °C; to `Cn1c(-c2ccc(-c3ccccn3)cc2)c(C(=O)N2CCC(OCC(=O)O)CC2)c(=O)n1-c1ccc(C(=N)N)cc1`, 238 to 249 °C.
As for `COC(=O)CC(C)(C)C(C)(C)S(=O)(=O)c1ccc(C)cc1`, the figure is 90 °C; as for `CCCCCCCC(=O)Nc1ccc(OCC(O)CNC(C)C)c(C#N)c1` (configuration not stated), 116 to 118 °C; as for `COC(=O)c1nc(-c2ccc(Cl)c(OC)c2F)c(F)c(N)c1Cl`, 169 to 170 °C.
As to `CNC(=O)N(OC)C(=O)Nc1ccccc1F`, the melting point lay within 144 to 147 °C.
To `COc1cc(OC)c2c(=O)[nH]c(-c3ccc(OCCNC(C)C)c(-c4cccc(S(C)(=O)=O)c4)n3)nc2c1` belongs 222 to 223 °C; to `CCN(CC)C(=O)CN1C(=O)C(NC(=O)Nc2ccccc2Cl)N=C(c2ccccc2)c2ccccc21` (configuration not stated), 173 to 175 °C.
As for `OC(COc1cccc2c1SCCC2)CN1CCC(c2ccccc2)CC1` (configuration not stated), the figure is 104 °C; as for `O=S1(=O)c2ccccc2C(CCCl)(CCCl)c2ccccc21`, 186 to 190 °C; as for `CC(C)c1ccc(Nc2nc(N)nc3c2-c2ccccc2C3)cc1`, 178 to 180 °C.
To `O=c1c2cccnc2c(-c2ccccc2)cn1Cc1ccccc1` belongs 166 to 167 °C.
Turning to `CCc1noc(-c2cn(-c3ccc(OCc4ccccc4)cc3)cn2)n1`, the melting point was in the range of 171 to 172 °C.
In turn, `C=C(C)C=COc1ccc(C(=O)C=Cc2ccc(OCC(=O)O)c(OC)c2)c(OCC(=O)O)c1` returned a melting point of over 200 °C.
As for `O=C1C(C(c2ccccc2)c2ccccc2)NC2CCCC3C(C2)C13` (configuration not stated), the figure is 178 to 181 °C; as for `COc1ccc(-c2cc(COS(C)(=O)=O)c(=O)n(Cc3ccc(F)c(F)c3)n2)cc1F`, 146 to 147 °C; as for `COc1ccc(NC(=O)Nc2ccc(Cl)c(Cl)c2)cc1NC(=S)Nc1cc(Cl)cc(Cl)c1`, 202 °C.
Molecule `Cc1ccc(NC(=O)CN2C(=O)C3(COc4cc5c(cc43)CCO5)c3ccccc32)c(C)c1` (configuration not stated) gave a melting point of 277 to 279 °C.
To `CN(C)c1ccc(NC(=O)N(CCC2=CCCCC2)C[C@H]2CC[C@H](CN(CCC3=CCCCC3)C(=O)Nc3ccc(N(C)C)cc3)CC2)cc1` belongs 152 to 155 °C; to `CS(=O)c1c(C(=N)NO)nn(-c2c(Cl)cc(C(F)(F)F)cc2Cl)c1N` (configuration not stated), 225 to 226 °C.
As for `O=C(O)c1cc(S(=O)Cc2ccccc2)c(Cl)cc1Cl` (configuration not stated), the figure is 192 °C; as for `CCOC(=O)CCCNC(=O)Cn1c(-c2cccc(Cl)c2)nc2cccnc21`, 127 to 129 °C.
As for `O=C(Oc1ccccc1)c1cccc([N+](=O)[O-])c1Cl`, the figure is 46 to 48 °C; as for `CC(=O)Nc1ccc(C=C(C#N)C(=O)OCC[Si](C)(C)C)cc1`, 136 °C; as for `CCc1nc(OC)c(NC(=O)N2CCN(c3cccc(O)c3)CC2)cc1C(=O)NC(C)C(=O)Nc1cc(CO)cc(Nc2c3ccccc3nc3ccccc23)c1` (configuration not stated), 207 to 209 °C.
Consider `CC(C)c1nc(-c2ccccc2Cc2ccccc2)cc(-c2ccc(F)cc2)c1C=O`, for which the melting point was in the range of 205 to 207 °C.
To `COc1ccc(C(=O)c2c(C)oc3ccc([N+](=O)[O-])cc23)cc1` belongs 167 °C; to `Nc1ccc2c(c1)ncn2-c1cccc(-c2cccnc2)c1`, 172 to 175 °C; to `CC#CC(=O)Nc1ccc(-n2nc(C(F)(F)F)cc2C(F)(F)F)cc1`, 220 to 221 °C.
To `COC(=O)C1=Cc2cc(-c3ccc(C(C)C)cc3)ccc2S(=O)(=O)CC1` belongs 142 to 144 °C.
For `O=C(O)COc1c[nH]cc(Cl)c1=O`, the melting point was in the range of 253 to 255 °C.
For `COc1cc2oc(=O)c(CCCl)c(C)c2cc1OC(C)C`, the melting point is 125 to 127 °C.
To `CCCCCCCCCCCCCCCCN(CCO)CCCCCCN(CCO)CCCCCCCCCCCCCCCC` belongs 29 to 30 °C.

What is called melting point is the temperature of the solid-liquid transition.
